Reference: patent EP2027081B1, “THERAPEUTIC PROSTAGLANDIN COMPOUNDS FOR THE TREATMENT OF GLAUCOMA” (ALLERGAN, INC., priority 2006, dated 2007)

Molecular target: T1, human EP2 receptors (Homo sapiens, UniProt P43116)
T1 construct: expressed in transfected cells; host or cells: HEK 293
Assay: Competition binding, [3H]PGE2, HEK 293 cells stably expressing human EP2 receptors
Conditions: Table 1; read-out: BINDING (Ki, nM) HEP 2
Procedure: Competition binding experiments were performed in a medium containing Hank's balanced salt solution, Hepes 20 mM, pH 7.3, membranes (∼60 µg protein) or 2x10^5 cells from HEK 293 cells stably expressing human EP2 receptors, [^3H]PGE2 (10 nM) and various concentrations of test compounds in a total volume of 300 µl. Reaction mixtures were incubated at 23 °C for 60 min, and were filtered over Whatman GF/B filters under vacuum. Filters were washed three times with 5 ml ice-cold buffer containing 50 mM Tris/HCl (pH 7.3). Non-specific binding was estimated in the presence of excess unlabeled PGE2 (10 µM). Binding data fitted to the binding model for a single class of binding sites, using nonlinear regression analysis.
(§1) HEK-293 cells stably expressing the human or feline FP receptor, or EP1, EP2, or EP4 receptors were washed with TME buffer, scraped from the bottom of the flasks, and homogenized for 30 sec using a Brinkman PT 10/35 polytron. TME buffer was added to achieve a final 40 ml volume in the centrifuge tubes (the composition of TME is 100 mM TRIS base, 20 mM MgCl2, […]; 10N HCl is added to achieve a pH of 7.4).
(§2) The cell homogenate was centrifuged at 19000 r.p.m. for 20 min at 4° C using a Beckman Ti-60 rotor. The resultant pellet was resuspended in TME buffer to give a final 1 mg/ml protein concentration, as determined by Biorad assay. Radioligand binding competition assays vs. [^3H-]17 -phenyl PGF2α (5 nM) were performed in a 100µl volume for 60 min. Binding reactions were started by adding plasma membrane fraction. The reaction was terminated by the addition of 4 ml ice-cold TRIS-HCl buffer and rapid filtration through glass fiber GF/B filters using a Brandel cell harvester. The filters were washed 3 times with ice-cold buffer and oven dried for one hour.
(§3) [^3H-] PGE2 (specific activity 180 Ci mmol) was used as the radioligand for EP receptors. [^3H] 17-phenyl PGF2α was employed for FP receptor binding studies. Binding studies employing EP1, EP2, EP4 and FP receptors were performed in duplicate in at least three separate experiments. A 200µl assay volume was used. Incubations were for 60 min at 25°C and were terminated by the addition of 4 ml of ice-cold 50 mM TRIS-HCl, followed by rapid filtration through Whatman GF/B filters and three additional 4 ml washes in a cell harvester (Brandel). Competition studies were performed using a final concentration of 5 nM [^3H]-PGE2, or 5 nM [^3H] 17-phenyl PGF2α and non-specific binding determined with 10^-5M of unlabeled PGE2, or 17-phenyl PGF2α, according to receptor subtype studied.

T1 sequence (P43116 whole entry): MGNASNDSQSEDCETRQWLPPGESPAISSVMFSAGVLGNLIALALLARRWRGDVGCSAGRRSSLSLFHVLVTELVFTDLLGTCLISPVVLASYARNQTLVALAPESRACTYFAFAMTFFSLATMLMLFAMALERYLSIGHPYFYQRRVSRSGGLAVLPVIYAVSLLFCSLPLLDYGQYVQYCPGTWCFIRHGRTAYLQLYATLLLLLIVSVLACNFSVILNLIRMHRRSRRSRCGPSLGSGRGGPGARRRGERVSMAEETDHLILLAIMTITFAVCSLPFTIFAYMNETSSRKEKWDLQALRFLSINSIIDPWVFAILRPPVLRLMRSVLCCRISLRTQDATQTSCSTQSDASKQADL

Structure (SMILES)	Ki
CCCCCC(O)c1ccc([C@H]2CCC(=O)[C@@H]2CCCc2ccc(C(=O)O)s2)cc1 (stereo partly drawn) [Entry 23]	54 nM

Same assay, conditions: Table 2; unit inferred; read-out: BINDING HEP2

Structure (SMILES)	Ki
CCCCCC(O)c1ccc([C@H]2CCC(=O)[C@@H]2C/C=C\CCCC(=O)O)cc1 (stereo partly drawn) [drawing 97]	700 nM
CCCCCC(O)c1ccc([C@H]2CCC(=O)[C@@H]2C/C=C\CCCC(=O)OC)cc1 (stereo partly drawn) [drawing 96]	15000 nM
CCCCCC(O)c1ccc([C@H]2CCC=C2CCCCCCC(=O)O)cc1 (stereo partly drawn)	2810 nM
CCCCCC(O)c1ccc([C@H]2CC[C@@H](F)[C@@H]2CCCCCCC(=O)O)cc1 (stereo partly drawn)	600 nM
CCCCC(O)Cc1ccc([C@H]2CCC(=O)[C@@H]2CCCCCCC(=O)OC)cc1 (stereo partly drawn)	4600 nM
CCCCCC(O)c1ccc([C@H]2CCC(=O)[C@@H]2CCCCCCC(=O)O)s1 (stereo partly drawn)	600 nM
CCCCC(O)c1ccc([C@H]2CCC(=O)[C@@H]2CCCCCCC(=O)O)cc1 (stereo partly drawn)	1400 nM
CCCCCC(O)c1ccc([C@H]2CC[C@@H](Cl)[C@@H]2CCCCCCC(=O)O)cc1 (stereo partly drawn)	1900 nM
CCCCC(O)Cc1ccc([C@H]2CCC(=O)[C@@H]2CCCCCCC(=O)O)cc1 (stereo partly drawn)	700 nM
CCCCCC(O)c1ccc([C@H]2CCC(=O)[C@@H]2CCCCCCC(=O)OC)s1 (stereo partly drawn)	7100 nM
CCCCC(O)c1ccc([C@H]2CCC(=O)[C@@H]2CCCCCCC(=O)OC)cc1 (stereo partly drawn)	15000 nM

Same assay, conditions: Table 3; read-out: BINDING (Ki, nM) HEP2

Structure (SMILES)	Ki
CCCCCC(O)c1ccc([C@H]2CCC(=O)[C@@H]2CCCCCCC(=O)OC)cc1 (stereo partly drawn)	4680 nM

Molecular target: T2, EP4 receptors (Homo sapiens, UniProt P35408)
T2 construct: expressed in transfected cells; host or cells: HEK-293
Assay: Radioligand binding, EP4 receptor
Conditions: Table 3; read-out: BINDING (Ki, nM) HEP4
Procedure: as §1, §2, §3

T2 sequence (P35408 whole entry): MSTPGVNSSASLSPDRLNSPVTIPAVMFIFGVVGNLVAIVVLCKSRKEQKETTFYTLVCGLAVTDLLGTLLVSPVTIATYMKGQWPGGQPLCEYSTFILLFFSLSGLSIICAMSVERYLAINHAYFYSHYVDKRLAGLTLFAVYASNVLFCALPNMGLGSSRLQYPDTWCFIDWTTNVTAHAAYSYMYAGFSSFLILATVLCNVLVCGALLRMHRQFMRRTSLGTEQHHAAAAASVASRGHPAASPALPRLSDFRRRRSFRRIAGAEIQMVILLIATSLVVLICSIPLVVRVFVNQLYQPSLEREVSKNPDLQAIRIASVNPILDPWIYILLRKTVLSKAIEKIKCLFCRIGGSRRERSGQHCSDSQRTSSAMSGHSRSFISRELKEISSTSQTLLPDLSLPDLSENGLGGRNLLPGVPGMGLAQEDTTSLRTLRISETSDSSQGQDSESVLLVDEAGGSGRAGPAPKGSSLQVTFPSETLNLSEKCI

Structure (SMILES)	Ki
CCCCCC(O)c1ccc([C@H]2CCC(=O)[C@@H]2CCCCCCC(=O)OC)cc1 (stereo partly drawn)	15000 nM

Molecular target: T3, hEP2/Gqs5 (Homo sapiens, UniProt P43116)
T3 construct: expressed in transfected cells; host or cells: HEK-293(EBNA)
Assay: FLIPR calcium signal study, HEK-293(EBNA) cells
Assay type: cell-based
Conditions: not given
Procedure: (§4) Cells were seeded at a density of 5x10^4 cells per well in Biocoat® Poly-D-lysine-coated black-wall, clear-bottom 96-well plates (Becton-Dickinson) and allowed to attach overnight in an incubator at 37 °C. Cells were then washed two times with HBSS-HEPES buffer (Hanks Balanced Salt Solution without bicarbonate and phenol red, 20 mM HEPES, pH 7.4) using a Denley Cellwash plate washer (Labsystems). After 45 minutes of dye-loading in the dark, using the calcium-sensitive dye Fluo-4 AM at a final concentration of 2 µM, plates were washed four times with HBSS-HEPES buffer to remove excess dye leaving 100 µl in each well. Plates were re-equilibrated to 37 °C for a few minutes.
Cells were excited with an Argon laser at 488 nm, and emission was measured through a 510-570 nm bandwidth emission filter (FLIPR™, Molecular Devices, Sunnyvale, CA). […] The peak increase in fluorescence intensity was recorded for each well. […] The peak fluorescence change in each drug-containing well was then expressed relative to the controls.
(§5) Compounds were tested in a high-throughput (HTS) or concentration-response (CoRe) format. In the HTS format, forty-four compounds per plate were examined in duplicates at a concentration of 10^-5 M. To generate concentration-response curves, four compounds per plate were tested in duplicates in a concentration range between 10^-5 and 10^-11 M. The duplicate values were averaged.

T3 sequence (P43116 whole entry): as the sequence (P43116 whole entry) above

Structure (SMILES)	EC50
CCCCCC(O)c1ccc([C@H]2CCC(=O)[C@@H]2CCCCCCC(=O)O)s1 (stereo partly drawn)	769 nM
CCCCC(O)c1ccc([C@H]2CCC(=O)[C@@H]2CCCCCCC(=O)O)cc1 (stereo partly drawn)	1410 nM
CCCCCC(O)c1ccc([C@H]2CCC(=O)[C@@H]2CCCCCCC(=O)OC)s1 (stereo partly drawn)	7100 nM

Same assay, conditions: Table 1; Ca2+ signal; NA means not active; read-out: FUNCTIONAL (Ca2+, EC50, nM) HEP 2

Structure (SMILES)	EC50
CCCCCC(O)c1ccc([C@H]2CCC(=O)[C@@H]2CCCc2ccc(C(=O)O)s2)cc1 (stereo partly drawn) [Entry 23]	2 nM

Same assay, conditions: Table 2; unit inferred; read-out: FUNCTIONAL HEP2

Structure (SMILES)	EC50
CCCCCC(O)c1ccc([C@H]2CCC(=O)[C@@H]2C/C=C\CCCC(=O)O)cc1 (stereo partly drawn) [drawing 97]	1010 nM
CCCCCC(O)c1ccc([C@H]2CCC(=O)[C@@H]2C/C=C\CCCC(=O)OC)cc1 (stereo partly drawn) [drawing 96]	15000 nM
CCCCCC(O)c1ccc([C@H]2CCC=C2CCCCCCC(=O)O)cc1 (stereo partly drawn)	4880 nM
CCCCCC(O)c1ccc([C@H]2CC[C@@H](F)[C@@H]2CCCCCCC(=O)O)cc1 (stereo partly drawn)	15000 nM
CCCCC(O)Cc1ccc([C@H]2CCC(=O)[C@@H]2CCCCCCC(=O)OC)cc1 (stereo partly drawn)	15000 nM
CCCCCC(O)c1ccc([C@H]2CC[C@@H](Cl)[C@@H]2CCCCCCC(=O)O)cc1 (stereo partly drawn)	15000 nM
CCCCC(O)Cc1ccc([C@H]2CCC(=O)[C@@H]2CCCCCCC(=O)O)cc1 (stereo partly drawn)	343 nM
CCCCC(O)c1ccc([C@H]2CCC(=O)[C@@H]2CCCCCCC(=O)OC)cc1 (stereo partly drawn)	15000 nM

Same assay, conditions: Table 3; read-out: FUNCTIONAL (Ca2+, EC50, nM) HEP2

Structure (SMILES)	EC50
CCCCCC(O)c1ccc([C@H]2CCC(=O)[C@@H]2CCCCCCC(=O)OC)cc1 (stereo partly drawn)	2160 nM

Molecular target: T4, hEP3A/Gqi5 (Homo sapiens, UniProt P43115)
T4 construct: expressed in transfected cells; host or cells: HEK-293(EBNA)
T4 sequence (P43115 1-390): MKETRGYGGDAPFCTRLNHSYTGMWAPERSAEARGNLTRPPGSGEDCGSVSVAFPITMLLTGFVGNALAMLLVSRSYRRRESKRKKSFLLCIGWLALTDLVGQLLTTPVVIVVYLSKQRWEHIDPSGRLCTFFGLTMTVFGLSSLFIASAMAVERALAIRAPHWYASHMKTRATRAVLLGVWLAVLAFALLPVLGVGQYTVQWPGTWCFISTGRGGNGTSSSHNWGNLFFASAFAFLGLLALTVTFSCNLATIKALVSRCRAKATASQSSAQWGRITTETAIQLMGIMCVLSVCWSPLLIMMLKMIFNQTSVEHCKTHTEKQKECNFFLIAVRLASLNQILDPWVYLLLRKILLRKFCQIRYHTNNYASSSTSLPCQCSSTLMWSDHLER
Assay: FLIPR calcium signal study, HEK-293(EBNA) cells
Assay type: cell-based
Conditions: Table 1; NA means not active; read-out: FUNCTIONAL (Ca2+, EC50, nM) HEP 3A
Procedure: HEK-293(EBNA) cells, stably expressing one type or subtype of recombinant human prostaglandin receptors (prostaglandin receptors expressed: hDP/Gqs5; hEP1; hEP2/Gqs5; hEP3A/Gqi5; hEP4/Gqs5; hFP; hIP; hTP), were cultured in 100 mm culture dishes in high-glucose DMEM medium containing 10% fetal bovine serum, 2 mM I-glutamine, 250 µg/ml geneticin (G418) and 200 µg/ml hygromycin B as selection markers, and 100 units/ml penicillin G, 100 µg/ml streptomycin and 0.25 µg/ml amphotericin B.
as §4
Cells were excited with an Argon laser at 488 nm, and emission was measured through a 510-570 nm bandwidth emission filter (FLIPR™, Molecular Devices, Sunnyvale, CA). Drug solution was added in a 50 µl volume to each well to give the desired final concentration. The peak increase in fluorescence intensity was recorded for each well. On each plate, four wells each served as negative (HBSS-HEPES buffer) and positive controls (standard agonists: BW245C (hDP); PGE2 (hEP1; hEP2/Gqs5; hEP3A/Gqi5; hEP4/Gqs5); PGF2α (hFP); carbacyclin (hIP); U-46619 (hTP), depending on receptor). The peak fluorescence change in each drug-containing well was then expressed relative to the controls.
as §5, with “averaged. In either, HTS or CoRe format each compound was tested on at least 3 separate plates using cells from different passages to give an n ≥ 3.” for “averaged.”

Structure (SMILES)	EC50
CCCCCC(O)c1ccc([C@H]2CCC(=O)[C@@H]2CCCc2ccc(C(=O)O)s2)cc1 (stereo partly drawn) [Entry 23]	55 nM

Same assay, conditions: Table 3; read-out: FUNCTIONAL (Ca2+, EC50, nM) HEP3A

Structure (SMILES)	EC50
CCCCCC(O)c1ccc([C@H]2CCC(=O)[C@@H]2CCCCCCC(=O)OC)cc1 (stereo partly drawn)	3090 nM

Molecular target: HEP 2 (Homo sapiens, UniProt P43116)
Assay: cAMP mediated assay
Assay type: cell-based
Conditions: Table 1; value in brackets, footnote (a)

HEP 2, sequence (P43116 whole entry): as the sequence (P43116 whole entry) above

Structure (SMILES)	EC50
CCCCCC(O)c1ccc([C@H]2CCC(=O)[C@@H]2CCCc2ccc(C(=O)O)s2)cc1 (stereo partly drawn) [Entry 23]	3 nM
